Reference: patent publication US20110067123A1, “MAO-B ELEVATION AS AN EARLY PARKINSON'S DISEASE BIOMARKER” (priority 2008, published 2011)
Read-outs that look alike come from different tables or passages of the source.

Key:
[1] = tested on: SN dopaminergic neurons; assay: Mitochondrial superoxide in vivo (Mitosox Red) in SN dopaminergic neurons; set-up: species or system mouse; conditions: for increases in mitosox red fluorescence within dopaminergic SN neurons: dox-induced transgenics, co-treatment, FIG. 6; for Mean pixel intensity per cell / Total pixel fluorescence per cell: superoxide (mitosox red) in SN dopaminergic neurons, dox-induced plus co-treatment
Procedure: Mitosox Red (Molecular Probes) was used as an indicator to assess presence of superoxide within cellular mitochondria. 10 μg of Mitosox in 200 μl phosphate-buffered saline was injected into the tail vein of dox-induced transgenics versus controls. Animals were sacrificed 90 minutes later, brains rapidly dissected out and post-fixed overnight in 4% paraformaldehyde. Brains were sectioned at 30 μm using a cryostat. Cellular localization and site of Mitosox Red accumulation in the nigrostriatum was identified by immunofluorescence using anti-TH (Chemicon, 1:500), anti-IBA1 (Wako, 1:500) or anti-GFAP (DAKO, 1:500) antibodies visualized with Fluorescein Avidin D. Mitochondrial localization was confirmed by immunoanalysis using an anti-ATP synthase-specific antibody. Fluorescent imaging was done using a Zeiss LSM510 NLO confocal microscope and images procured using LSM software. Quantification of colocalization and fluorescent intensity was determined using the IMARIS software suite (Bitplane AG, Zurich, Switzerland) on selected cells from multiple sections.

[2] = tested on: mitochondrial complex I; assay: Mitochondrial complex I activity in isolated ST dopaminergic synaptosomes; type: in vivo, mouse; conditions: dox-induced animals co-treated
Procedure: Dopaminergic and non-dopaminergic striatal synaptosomes were isolated using a modified immuno-magnetic protocol. Briefly, synaptosomes were prepared from dissected striatal tissue. Dopaminergic synaptosomes were isolated using magnetic beads conjugated to anti-rabbit IgG (Miltenyi Biotech) after capturing them using a rabbit anti-DAT antibody (Chemicon). Under a magnetic field, bead-bound synaptosomes were passed through a column and washed; flow-through in the presence of the magnetic field yielded a fraction enriched in non-dopaminergic striatal synaptosomes. Elution performed in the absence of the magnetic field yielded fractions enriched in dopaminergic striatal synaptosomes. Equal quantities of various fractions of the synaptosomes isolated using DAT antibody including the starting material or control, the unbound fraction, the flow-through, the wash and the eluate were subjected to western analysis to assess relative dopaminergic versus non-dopaminergic synaptosomal purification. Western blots were performed using antibodies against TH (Chemicon 1:500), GABA (Chemicon, 1:1000) or SNAP-25 as a synaptic protein normalization control (Chemicon, 1:1000). Band densities were quantified using a Chemimager (Alpha Innotech, San Leandro, Calif.). Approximately 94% synaptosomes in the eluate were dopaminergic according to densitometric evaluation of the western blot. […]

[3] = tested on: ST dopaminergic synaptosomes; assay: H2O2 (DCF fluorescence) in isolated ST dopaminergic synaptosomes; type: in vivo, mouse; conditions: for elevation of H2O2 levels in ST dopaminergic synaptosomes: dox-induced animals co-treated, DCF fluorescence, FIG. 5C
Procedure: Dopaminergic and non-dopaminergic striatal synaptosomes were isolated using a modified immuno-magnetic protocol. Briefly, synaptosomes were prepared from dissected striatal tissue. Dopaminergic synaptosomes were isolated using magnetic beads conjugated to anti-rabbit IgG (Miltenyi Biotech) after capturing them using a rabbit anti-DAT antibody (Chemicon). Under a magnetic field, bead-bound synaptosomes were passed through a column and washed; flow-through in the presence of the magnetic field yielded a fraction enriched in non-dopaminergic striatal synaptosomes. Elution performed in the absence of the magnetic field yielded fractions enriched in dopaminergic striatal synaptosomes. Equal quantities of various fractions of the synaptosomes isolated using DAT antibody including the starting material or control, the unbound fraction, the flow-through, the wash and the eluate were subjected to western analysis to assess relative dopaminergic versus non-dopaminergic synaptosomal purification. Western blots were performed using antibodies against TH (Chemicon 1:500), GABA (Chemicon, 1:1000) or SNAP-25 as a synaptic protein normalization control (Chemicon, 1:1000). Band densities were quantified using a Chemimager (Alpha Innotech, San Leandro, Calif.). Approximately 94% synaptosomes in the eluate were dopaminergic according to densitometric evaluation of the western blot.
Hydrogen peroxide levels were measured in the striatal dopaminergic and nondopaminergic synaptosomes prepared as above from various groups of mice. Mice were injected in the tail vein with ˜200 μl of DCFDA (Calbiochem) which was freshly diluted 100× with PBS from a stock of 100 mg/ml in DMSO as modified from Andrews et. al.. […] Hydrogen peroxide in the synaptosomes with or without 1 mg/ml catalase for 30 min after preparation was visualized as DCF fluorescence at 488 nm excitation and 512 nm emission in a Spectramax Gemini fluorescence plate reader. The relative fluorescence was normalized to synaptosomal protein which was quantified using the Bradford reagent, Bio-Rad.

[4] = tested on: mesencephalic cultures; assay: Extracellular H2O2 in medium of dox-induced mesencephalic cultures (Amplex Red); type: cell-based, mouse; conditions: 10 μM deprenyl, 30 μM EUK189 or 500 nM apocynin, FIG. 4
Procedure: Primary mixed cultures were prepared from the midbrain of 14-day-old mice embryos from MAO-B transgenics and WT controls. Tissue was digested in Neurobasal medium containing 30 U/ml papain and 20 μg/ml DNase at 37° C. for 30 min and mechanically triturated. Dissociated cells were centrifuged at 500×g, resuspended in growth medium (Neurobasal medium supplemented with 10% FBS, 2 mM […], […] supplement without antioxidants, 50 U/ml penicillin, 50 U/ml streptomycin and 50 ng/ml GDNF [57]), and plated on poly-d-lysine-coated 8 well chamber slides (BD-Biocoat) at a density of 10^5 cells per ml. Mixed cultures were grown at 37° C. for 3-5 days before induction with 40 μg/ml doxycycline for 12 hours as per. […] H2O2 in the medium was assayed by Amplex Red per the manufacturer's instructions. Dopaminergic and microglial cell counts were performed following fixation of the cultured cells for 15 min with 4% formaldehyde following by T11^+ (Chemicon) or Iba1^+ (WAKO USA, Richmond, Va.) immunostaining or via uptake of ASP^+ (4-(4-(dimethylamino)styryl)-N-methylpyridinium iodide) (Invitrogen), a fluorescent analogue of dopamine. 10 μM ASP^+ was loaded on to the uninduced or induced cultures in the presence of 20 μM of desipramine to inhibit the norepinephrine transporter which would also take up the dye. ASP^+ fluorescence (red) was visualized in the T11^+ cells after immunostaining with anti-T11 antibody and Alexa fluor 488 conjugated secondary antibody. Averages of manual double blind T11^+ or fluorescent counts of three wells of culture with the same treatment were collected; counts were performed in triplicate.

[5] = tested on: dopaminergic SN neurons; assay: Stereological TH+ SN cell counts in inducible astrocytic MAO-B transgenic mice; type: in vivo, mouse; conditions: dox-induced transgenic mice; co-treatment i.p. 10-30 mg/kg/day for two weeks; FIG. 3A
[6] = Striatal MPP+ levels by HPLC after MPTP injection; type: in vivo, mouse; conditions: 30 mg/kg MPTP, 90 minutes post injection
Procedure: (§1) Striatal tissue was harvested from dox versus untreated animals 90 minutes following injection of 30 mg/kg MPTP intraperitoneally, immediately immersed in ice cold 0.1 M perchloric acid and sonicated. MPP^+ was measured by HPLC as previously described. Dopamine levels were analyzed in striata dissected two weeks of induction or 24 hrs following MPTP injection post induction by HPLC followed by a 464 pulsed electrochemical detection (Neurochemistry Core, Center for Molecular Neuroscience, Vanderbilt University). Stereological cell counts were performed on immunostained brain sections from brains harvested two weeks after induction using either antibody against tyrosine hydroxylase (TH, Chemicon, 1:500) followed by biotin-labeled secondary antibody and development using DAB (Vector Laboratories). TH^+ cells were counted stereologically throughout the SNpc. Counts for dox removal were performed on brains dissected after removal of dox from the feed for a three week period. Sections were cut at a 40 μm thickness, and every 4th section was counted using a grid of 100×100 μm. Dissector size used was 35×35×12 μm. Neuronal numbers were assessed following NeuN^+ (Chemicon, 1:100) or GABA^+ (Chemicon, 1:1000) immunostaining and astrocytes via GFAP^+ (DAKO, 1:500) and s100-â (DAKO, 1:200) immunostaining. Cells were counted in the SN, striata, and cortex in three independent sections per condition and ten fields per section. […] Dopaminochrome was measured from striatal samples by HPLC as per Ochs et al.
To validate that our transgenic model expresses functionally active MAO-B, we assessed its vulnerability to acute systemic MPTP administration. […] Induced and uninduced transgenic mice and wildtype C57B16 littermates were treated with 30 mg/kg MPTP and striatal MPP levels measured via HPLC (Table 1). […]

[7] = tested on: tyrosine hydroxylase positive (TH+) cells in mesencephalic cultures; assay: TH+ dopaminergic cell counts and morphology in dox-induced mesencephalic cultures; type: cell-based, mouse; conditions: 40 μg/ml dox, twelve hours; deprenyl co-treatment (10 μM); FIG. 2A
[8] = tested on: astroglia; assay: Astrocyte activation by GFAP immunostaining in induced transgenic mice; type: in vivo, mouse; conditions: dox-treated transgenic mice, deprenyl co-treatment
Procedure: as §1, with “Stereological cell counts were performed on immunostained brain sections from brains harvested two weeks after induction using either antibody against tyrosine hydroxylase (TH, Chemicon, 1:500) followed by biotin-labeled secondary antibody and development using DAB (Vector Laboratories).” left out, “Counts for dox removal were performed on brains dissected after removal of dox from the feed for a three week period.” left out, “Dissector size used was 35×35×12 μm.” left out
Immunochemistry was performed on cryosections derived from the SN, striata, and CTX of fixed perfused brains from dox-induced transgenics versus controls. Astrocytic activation was assessed using primary antibodies against GFAP and s100-β. […]

[9] = Locomotor behavioral assessment (open field, Truscan); type: in vivo, mouse; conditions: induced mice, dox two weeks, deprenyl-treated
Procedure: Locomotor function was assessed using an automated Truscan photobeam apparatus (Colbourne Instruments, Allentown, Pa.) under illumination as previously described. Animals were habituated to the apparatus for 10 min then data collected over a 10-min period followed by analysis using Truscan 99 software. Spontaneous horizontal movement was assessed in both control and dox treated versus untreated transgenic mice via both ambulatory velocity and distance in a 10-min period.

[10] = tested on: microglia; assay: Microglial activation (Iba1 immunochemistry) in the SN; type: in vivo, mouse; conditions: SN of dox-induced transgenics; FIG. 7B
Procedure: Immunochemistry was performed on cryosections derived from the SN, striata, and CTX of fixed perfused brains from dox-induced transgenics versus controls. Astrocytic activation was assessed using primary antibodies against GFAP and s100-β. Microglial activation was detected using primary antibodies against […] Horse radish peroxidase or avidin-conjugated secondary antibodies were used to detect primary antibodies following either DAB or Fluorescein/Texas Red staining.

[11] = tested on: Parkinson's disease (PD) patients; conditions: cited from earlier work; for mortality rate: clinical PD, given after symptoms were present

Compound | increases in mitosox red fluorescence within dopaminergic SN neurons [1] | Mean pixel intensity per cell [1] | Total pixel fluorescence per cell [1] | loss of CI activity in dopaminergic synaptosomes [2] | elevation of H2O2 levels in ST dopaminergic synaptosomes [3] | increase in extracellular H2O2 [4] | further results
CC(=O)O.CCOc1cccc(C=NCCN=Cc2cccc(OCC)c2[O-])c1[O-].[Mn] [EUK-189] | prevented | 15.4 ± 4.0 | 126,757 ± 23,798 | attenuated | preventable | prevented the increase | dopaminergic SN cell loss [5]: attenuated
C[n+]1ccc(-c2ccccc2)cc1 [MPP+] | – | – | – | – | – | – | Striatal MPP+ levels ([6]; Dox (induced transgenic mice)): 182 ± 3.4 ng/mg protein; Striatal MPP+ levels ([6]; No Dox (uninduced transgenic mice)): 118 ± 2.3 ng/mg protein; Striatal MPP+ levels ([6]; WT (wildtype C57Bl6 littermates)): 100 ± 3.5 ng/mg protein
COc1cc(C(C)=O)ccc1O [apocynin] | – | – | – | – | – | partial reduction | –
C#CCN(C)[C@H](C)Cc1ccccc1 [deprenyl] | prevented | 10.2 ± 2.1 | 91,937 ± 19,107 | attenuated | preventable | prevented the increase | loss in the number of TH+ cells [7]: attenuated; astroglial branching (activation) and increased astroglial brain numbers, GFAP [8]: inhibited; locomotor activity [9]: completely unaffected; microglial activation [10]: prevented; mortality rate [11]: ineffective; mortality rate ([11]; listed as selegiline): no effect; requirement of L-DOPA supplementation ([11]; early stages of symptomatic PD): delayed and reduced
Catalase | – | – | – | – | – | – | DCF fluorescence of dopaminergic synaptosomes from induced animals ([3]; synaptosomes treated with 1 mg/ml catalase for 30 min after preparation): reduced the fluorescence to below uninduced levels
